Data: PMC4542547 (Scientific Reports, 2015)
Several values for one entry are separate records, joined by “and”; a condition that tells them apart may be missing. Identical values can stand only once. Like-named read-outs stand apart in the source and are kept apart here. Positions of bridges follow the written chain, without caps; N, C: chain ends. Residues, ends and D or L forms follow the SMILES beside them.

Legend:
human α9α10 nAChRs = biological target: T1, human α9α10 nAChRs (Homo sapiens, UniProt Q9GZZ6+Q9UGM1); assay: cell-based; format: cell-based
T1 construct: expressed in transfected cells; host or cells: Xenopus laevis oocytes (cRNA injection)
T1 sequence (Q9UGM1 26-479 limits assumed): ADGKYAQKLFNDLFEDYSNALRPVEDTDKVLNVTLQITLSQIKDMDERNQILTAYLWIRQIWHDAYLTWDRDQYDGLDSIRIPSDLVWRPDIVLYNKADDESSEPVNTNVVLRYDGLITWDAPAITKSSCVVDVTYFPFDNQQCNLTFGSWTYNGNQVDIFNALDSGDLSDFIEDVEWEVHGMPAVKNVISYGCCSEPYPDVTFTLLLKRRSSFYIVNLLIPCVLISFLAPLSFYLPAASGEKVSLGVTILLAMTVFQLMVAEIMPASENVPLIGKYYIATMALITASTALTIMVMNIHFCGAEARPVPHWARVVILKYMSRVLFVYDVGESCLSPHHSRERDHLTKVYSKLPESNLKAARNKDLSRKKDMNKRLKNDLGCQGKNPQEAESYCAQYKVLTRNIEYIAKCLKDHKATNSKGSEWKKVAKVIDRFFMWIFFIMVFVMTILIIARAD
T1 sequence (Q9GZZ6 25-450): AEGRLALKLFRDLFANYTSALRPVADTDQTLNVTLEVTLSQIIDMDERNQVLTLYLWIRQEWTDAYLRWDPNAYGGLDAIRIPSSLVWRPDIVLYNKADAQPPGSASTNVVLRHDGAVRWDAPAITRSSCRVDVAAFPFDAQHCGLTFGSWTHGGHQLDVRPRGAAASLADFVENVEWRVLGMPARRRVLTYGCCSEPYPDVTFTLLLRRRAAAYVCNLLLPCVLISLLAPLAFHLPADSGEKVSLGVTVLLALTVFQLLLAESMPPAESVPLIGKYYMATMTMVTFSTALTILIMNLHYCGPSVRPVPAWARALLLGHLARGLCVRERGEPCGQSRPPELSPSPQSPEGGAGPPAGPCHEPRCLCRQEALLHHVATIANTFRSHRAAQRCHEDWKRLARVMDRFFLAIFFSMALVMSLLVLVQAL

[1] = tested on: rat N-type (Cav2.2) calcium channels; conditions: read-out: IC50 rN-type (Cav2.2); cited from earlier work
rat α9α10 nAChRs = conditions: cited from earlier work
[2] = tested on: recombinant human Cav2.3 calcium channels; conditions: read-out: IC50 hCav2.3; cited from earlier work
[3] = tested on: rat N-type (Cav2.2) calcium channels; format: cell-based; conditions: read-out: IC50 rN-type (Cav2.2)
[4] = tested on: recombinant human Cav2.3 calcium channels; format: cell-based; conditions: read-out: IC50 hCav2.3
in vitro = conditions: male, human, serum

Work on `CC[C@H](C)[C@@H]1NC(=O)[C@H](CCC(=O)O)NC(=O)[C@@H]2CCCN2C(=O)[C@H](Cc2cnc[nH]2)NC(=O)[C@H](CC(=O)O)NC(=O)[C@H](Cc2ccc(O)cc2)NC(=O)[C@H](CC(N)=O)NC(=O)[C@@H]2CSSC[C@H](NC(=O)CN)C(=O)N[C@@H](CSSC[C@@H](C(N)=O)NC1=O)C(=O)N[C@@H](CO)C(=O)N[C@@H](CC(=O)O)C(=O)N1CCC[C@H]1C(=O)N[C@@H](CCCNC(=N)N)C(=O)N2` [Vc1.1, reference compound] yielded an IC50 (human α9α10 nAChRs) of 320000 pM.

In the case of `CC[C@H](C)[C@@H]1NC(=O)[C@H](CCC(=O)O)NC(=O)[C@@H]2CCCN2C(=O)[C@H](Cc2c[nH]cn2)NC(=O)[C@H](CC(=O)O)NC(=O)[C@H](Cc2ccc(O)cc2)NC(=O)[C@H](CC(N)=O)NC(=O)[C@@H]2CSSC[C@@H]3NC(=O)CNC(=O)CNC(=O)CNC(=O)[C@H](C)NC(=O)[C@H](C)NC(=O)CNC(=O)CNC(=O)[C@H](CSSC[C@H](NC3=O)C(=O)N[C@@H](CO)C(=O)N[C@@H](CC(=O)O)C(=O)N3CCC[C@H]3C(=O)N[C@@H](CCCNC(=N)N)C(=O)N2)NC1=O` [cVc1.1], the IC50 [1] is listed as 300 pM, the IC50 (rat α9α10 nAChRs) is listed as 765000 pM and the IC50 [2] is listed as 290 pM.

For `CC[C@H](C)[C@@H]1NC(=O)[C@H](CCC(=O)O)NC(=O)[C@@H]2CCCN2C(=O)[C@H](Cc2c[nH]cn2)NC(=O)[C@H](CC(=O)O)NC(=O)[C@H](Cc2ccc(O)cc2)NC(=O)[C@H](CC(N)=O)NC(=O)[C@H](Cc2ccccc2)NC(=O)[C@H](CCCNC(=N)N)NC(=O)[C@@H]2CCCN2C(=O)[C@H](CC(=O)O)NC(=O)[C@H](CO)NC(=O)[C@@H]2CSSC[C@H](NC1=O)C(=O)NCC(=O)NCC(=O)N[C@@H](C)C(=O)N[C@@H](C)C(=O)NCC(=O)NCC(=O)NCC(=O)N[C@@H](Cc1c[nH]cn1)C(=O)N2` [hcVc1.1] (cyclo(AAGGGHCSDPRFNYDHPEICGG); disulfide 7-20), the IC50 [3] was ~900 pM and 857 pM, the IC50 [4] was ~900 pM and 961 pM and the “lower potency than cVc1.1 at human recombinant α9α10 nAChR currents” value (human α9α10 nAChRs) was “two-fold”.

`CC[C@H](C)[C@@H]1NC(=O)[C@H](CCC(=O)O)NC(=O)[C@@H]2CCCN2C(=O)[C@H](Cc2cnc[nH]2)NC(=O)[C@H](CC(=O)O)NC(=O)[C@H](Cc2ccc(O)cc2)NC(=O)[C@H](CC(N)=O)NC(=O)[C@H](Cc2ccccc2)NC(=O)[C@H](CCCNC(=N)N)NC(=O)[C@@H]2CCCN2C(=O)[C@H](CC(=O)O)NC(=O)[C@H](CO)NC(=O)[C@@H]2CSSC[C@H](NC1=O)C(=O)NCC(=O)NCC(=O)N[C@@H](C)C(=O)N[C@@H](C)C(=O)NCC(=O)NCC(=O)NCC(=O)N[C@@H](Cc1cnc[nH]1)C(=O)N2` [hcVc1.1] (cyclo(AAGGGHCSDPRFNYDHPEICGG); disulfide 7-20) showed a remaining at 24 h (in vitro) of roughly 90%.
